Laboratory results as given in article PMC8151276, “An Integrated Approach toward NanoBRET Tracers for Analysis of GPCR Ligand Engagement” (Molecules, 2021).

Experiments:
Assay type in all cases: binding
[1] = biological target: T1, CXCR3 (Homo sapiens, UniProt P49682); test: NanoBRET screen HiBiT-CXCR3 in HEK293
T1 construct: purchased Promega (in-house HiBiT-GPCR construct library, NanoBRET)
T1 sequence (P49682 1-368): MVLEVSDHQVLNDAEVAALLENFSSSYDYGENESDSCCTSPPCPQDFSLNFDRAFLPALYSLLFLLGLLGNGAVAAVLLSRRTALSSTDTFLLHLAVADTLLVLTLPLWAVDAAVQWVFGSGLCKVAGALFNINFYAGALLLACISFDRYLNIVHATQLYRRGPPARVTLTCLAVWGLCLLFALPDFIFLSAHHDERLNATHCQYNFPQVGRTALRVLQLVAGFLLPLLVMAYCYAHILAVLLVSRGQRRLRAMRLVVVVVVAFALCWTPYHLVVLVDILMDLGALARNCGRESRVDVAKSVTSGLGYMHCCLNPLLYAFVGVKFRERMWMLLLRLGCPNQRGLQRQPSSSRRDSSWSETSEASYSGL
Experimental: (§1) Each tracer candidate was screened across the entire library of HiBiT-GPCR constructs using NanoBRET as the detection modality. As depicted in Figure 4A, the specificity of interactions was evaluated through decrease in BRET due to competitive displacement of a bound tracer by excess parental compound. Each tracer was analyzed for binding to each HiBiT-GPCR fusion in the absence and in the presence of competing parental compound. Briefly, HEK293 cells were transfected with HiBiT-GPCR constructs diluted into promoterless DNA to reduce expression and maximize translocation to the cell surface. Each tracer candidate was then screened at concentrations of 1 μM and 0.1 μM across cells expressing these fusions. Cells were treated for 1.5 h with tracer either alone or in the presence of 20 μM competing parental compound (i.e., control). BRET was measured upon addition of purified LgBiT and subsequent complementation with HiBiT genetically fused to a GPCR. The specificity of interactions was assessed through a decrease in BRET signal due to competitive displacement of the bound tracer. To further gauge the robustness of these interactions, the fold response over the control (i.e., BRETtracer/BRETcontrol) was calculated. We chose a 1.5-fold response, which translates to ≥7-fold signal over noise as the minimal threshold required to score an interaction as positive. […]. Below we highlight the screening results obtained for our exemplary fluorescent tracers based on Clozapine, Amitriptyline and AZD1283.
(§2) HiBiT-GPCR DNA constructs were diluted in 10 mM Tris pH 8 to a final concentration of 0.01 μg/μL, arrayed in 96-well plates and stored at −20 °C. For transfection, HEK293 cells were suspended in Opti-MEM (without phenol red) supplemented with 2% fetal bovine serum (Seradigm) and 100 units/mL penicillin–streptomycin (Gibco) at a final concentration of 220,000 cells/mL and dispensed into white 96-well plates at 90 μL/well. Subsequent transfections and screens were carried using an Agilent Bravo Automated Liquid Handling Platform. First, the 96-well HiBiT DNA arrays were diluted 25-fold in Opti-MEM (without serum or phenol red) to a final concentration of 0.0004 μg/μL and 20 μL of the diluted DNAs were transferred into new 96-well plates. Next, promoterless carrier DNA (1 μg/μL) was diluted 25-fold (0.04 μg/μL) and then dispensed into the diluted arrays at 20 μL/well. Following brief mixing, Viafect transfection reagent (Promega) diluted 16-fold into Opti-MEM was dispensed into the plates at 40 μL/well. After mixing by pipetting, plates were incubated for 10 min on the pipetting station deck. The DNA-transfection reagent complexes were then added to plates containing cells. To facilitate the screen, 10 μL of DNA-transfection reagent complexes were added in duplicates to the top 4 and bottom 4 rows, resulting in two identical 48-well arrays per plate. Plates with transfected cells were incubated for 18–20 h at 37 °C/5% CO2. A screen of each tracer across the entire library using two different concentrations requires duplicate plates of transfected cells. Depending on the number of tracers being screened, transfections can be scaled up using the same ratios. The next day, for each tracer, four 20× screening solutions in tracer dilution buffer (Promega) were prepared: two duplicates at final concentration of 20 μM and two duplicates at a final concentration of 2 μM. A competing unmodified compound was added to one of each duplicate at a final concentration of 400 μM. The four resulting solutions were diluted 4-fold in Opti-MEM without serum or phenol red to generate 5× solutions (5 µM and 0.5 µM tracer +/− 100 μM competing compound). To screen the library, a BioTek MultiFlo FX liquid dispenser was used to dispense 22.5 µL of tracer solution to the top 4 rows and 22.5 µL tracer + competing compound solution to the 4 bottom rows. Plates were briefly mixed on an orbital shaker and incubated for 1.5 h at room temperature. […]

[2] = biological target: T2, FZD4 (Homo sapiens, UniProt Q9ULV1); test: NanoBRET screen HiBiT-FZD4 in HEK293
T2 construct: purchased Promega (in-house HiBiT-GPCR construct library, NanoBRET)
T2 sequence (Q9ULV1 37-537): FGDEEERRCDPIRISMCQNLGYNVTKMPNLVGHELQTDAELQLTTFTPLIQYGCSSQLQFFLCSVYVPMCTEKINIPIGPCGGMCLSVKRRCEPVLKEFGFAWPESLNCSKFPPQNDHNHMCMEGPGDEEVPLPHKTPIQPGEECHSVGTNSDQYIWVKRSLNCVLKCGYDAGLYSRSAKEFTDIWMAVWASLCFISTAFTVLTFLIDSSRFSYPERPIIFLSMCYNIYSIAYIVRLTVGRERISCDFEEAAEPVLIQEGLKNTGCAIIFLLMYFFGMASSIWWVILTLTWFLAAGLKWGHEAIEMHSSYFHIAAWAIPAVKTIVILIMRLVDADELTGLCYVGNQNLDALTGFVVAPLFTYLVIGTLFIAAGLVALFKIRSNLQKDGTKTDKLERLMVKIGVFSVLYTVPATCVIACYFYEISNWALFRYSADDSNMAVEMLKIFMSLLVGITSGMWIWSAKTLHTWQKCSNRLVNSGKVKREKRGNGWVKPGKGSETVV
Experimental: as §1, §2

[3] = biological target: T3, MCHR1 (Homo sapiens, UniProt Q99705); test: NanoBRET screen HiBiT-MCHR1 in HEK293; conditions: MCHR1
T3 construct: purchased Promega (in-house HiBiT-GPCR construct library, NanoBRET)
T3 sequence (Q99705 whole entry): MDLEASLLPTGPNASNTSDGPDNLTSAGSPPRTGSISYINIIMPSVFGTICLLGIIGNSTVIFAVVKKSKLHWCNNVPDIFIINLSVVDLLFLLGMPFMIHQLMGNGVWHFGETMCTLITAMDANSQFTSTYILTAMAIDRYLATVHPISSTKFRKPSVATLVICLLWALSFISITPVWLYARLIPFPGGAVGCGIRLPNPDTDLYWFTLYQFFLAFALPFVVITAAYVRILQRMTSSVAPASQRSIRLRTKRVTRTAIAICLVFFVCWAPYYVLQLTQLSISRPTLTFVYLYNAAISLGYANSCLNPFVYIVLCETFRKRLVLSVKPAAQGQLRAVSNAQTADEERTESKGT
Experimental: as §1, §2

[4] = biological target: T4, SSTR5 (Homo sapiens, UniProt P35346); test: NanoBRET screen HiBiT-SSTR5 in HEK293; conditions: SSTR5
T4 construct: purchased Promega (in-house HiBiT-GPCR construct library, NanoBRET)
T4 sequence (P35346 whole entry): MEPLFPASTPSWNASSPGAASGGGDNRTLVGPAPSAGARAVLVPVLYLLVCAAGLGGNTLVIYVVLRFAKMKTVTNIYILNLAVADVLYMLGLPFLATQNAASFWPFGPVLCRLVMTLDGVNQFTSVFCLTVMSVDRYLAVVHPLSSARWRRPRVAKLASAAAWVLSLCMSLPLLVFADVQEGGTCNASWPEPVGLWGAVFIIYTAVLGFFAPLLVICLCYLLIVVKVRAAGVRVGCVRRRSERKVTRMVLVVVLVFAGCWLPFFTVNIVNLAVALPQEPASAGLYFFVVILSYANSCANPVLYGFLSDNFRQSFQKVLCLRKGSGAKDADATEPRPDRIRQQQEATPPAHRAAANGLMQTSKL
Experimental: as §1, §2

Row | SMILES | NanoBRET Fold Response ([1]; CXCR3, tracer 0.1μM) | NanoBRET Fold Response ([1]; CXCR3, tracer 1μM) | NanoBRET Fold Response ([2]; FZD4, tracer 0.1μM) | NanoBRET Fold Response ([2]; FZD4, tracer 1μM) | NanoBRET Fold Response ([3]; tracer 0.1μM) | NanoBRET Fold Response ([3]; tracer 1μM) | NanoBRET Fold Response ([4]; tracer 0.1μM) | NanoBRET Fold Response ([4]; tracer 1μM) | NanoBRET Fold Response ([1]; tracer at 1μM) | NanoBRET Fold Response ([2]; tracer at 1μM)
1 | Cc1nc2n(c(=O)c1CCN1CCC(c3noc4cc(F)ccc34)CC1)CCCC2OC(=O)NCCOCCOCCOCCOCCNC(=O)CCc1ccc2n1[B-](F)(F)[N+]1=C(c3ccc[nH]3)C=CC1=C2 (stereo not shown) [Risperidone-2-NB590] | 1.06 | 0.91 | 1.14 | 1.01 | 0.94 | 0.97 | 1.01 | 1.02 |  | 
2 | O=C(CCOCCOCCOCCOCCNC(=O)CCc1ccc2n1[B-](F)(F)[N+]1=C(c3ccc[nH]3)C=CC1=C2)NCCCN1CCN(C2=Nc3ccccc3Oc3ccc(Cl)cc32)CC1 [Loxapine-a-2-NB590] | 1.04 | 1.26 | 0.98 | 0.89 | 1.03 | 1.20 | 1.10 | 1.15 |  | 
3 | COc1ccccc1N1CCN(CCCCN2C(=O)c3ccc(CNC(=O)CCOCCOCCOCCOCCNC(=O)CCc4ccc5n4[B-](F)(F)[N+]4=C(c6ccc[nH]6)C=CC4=C5)cc3C2=O)CC1 [NAN-190-2-NB590] | 0.94 |  | 1.03 | 1.08 |  | 0.93 | 0.98 | 1.04 |  | 
4 | CC(C)N(CC[C@H](c1ccccc1)c1cc(CCNC(=O)CCOCCOCCOCCOCCNC(=O)CCc2ccc3n2[B-](F)(F)[N+]2=C(c4ccc[nH]4)C=CC2=C3)ccc1O)C(C)C [Tolterodine-2-NB590] | 1.87 | 1.01 | 0.95 | 0.96 | 1.18 | 0.95 | 0.93 | 1.04 |  | 
5 | N#CN=C(NCCCOc1cccc(CN2CCCCC2)c1)NCCNC(=O)CCOCCOCCOCCOCCNC(=O)CCc1ccc2n1[B-](F)(F)[N+]1=C(c3ccc[nH]3)C=CC1=C2 [Aminopotentidine-2-NB590] | 1.33 | 1.05 | 0.98 | 1.07 | 0.99 | 0.95 | 0.97 | 1.00 |  | 
6 | CN(CCC=C1c2ccccc2CCc2ccccc21)C(=O)CCOCCOCCOCCOCCNC(=O)CCc1ccc2n1[B-](F)(F)[N+]1=C(c3ccc[nH]3)C=CC1=C2 [Amitriptyline-e-2-NB590] |  |  |  |  |  |  |  |  | 1.22 | 0.97
